Experimental data taken from patent US10428081B2, “EGFR inhibitor, preparation method and use thereof” (Shanghai Hansoh Biomedical Co., Ltd., priority 2014, dated 2019).

Key:
[1] = molecular target: exon 20 T790M mutant-type EGFR enzyme (Homo sapiens, UniProt P00533, T790M); test: Enzymologic experiment of T790M mutant-type EGFR (TR-FRET); type: biochemical; conditions: for IC50: T790M EGFR enzyme, TR-FRET, ATP 1 to 10 uM; for Selectivity of wild-type/mutant-type: ratio WT IC50 / T790M IC50, enzyme
Chain of exon 20 T790M mutant-type EGFR enzyme (P00533 25-1210 T790M): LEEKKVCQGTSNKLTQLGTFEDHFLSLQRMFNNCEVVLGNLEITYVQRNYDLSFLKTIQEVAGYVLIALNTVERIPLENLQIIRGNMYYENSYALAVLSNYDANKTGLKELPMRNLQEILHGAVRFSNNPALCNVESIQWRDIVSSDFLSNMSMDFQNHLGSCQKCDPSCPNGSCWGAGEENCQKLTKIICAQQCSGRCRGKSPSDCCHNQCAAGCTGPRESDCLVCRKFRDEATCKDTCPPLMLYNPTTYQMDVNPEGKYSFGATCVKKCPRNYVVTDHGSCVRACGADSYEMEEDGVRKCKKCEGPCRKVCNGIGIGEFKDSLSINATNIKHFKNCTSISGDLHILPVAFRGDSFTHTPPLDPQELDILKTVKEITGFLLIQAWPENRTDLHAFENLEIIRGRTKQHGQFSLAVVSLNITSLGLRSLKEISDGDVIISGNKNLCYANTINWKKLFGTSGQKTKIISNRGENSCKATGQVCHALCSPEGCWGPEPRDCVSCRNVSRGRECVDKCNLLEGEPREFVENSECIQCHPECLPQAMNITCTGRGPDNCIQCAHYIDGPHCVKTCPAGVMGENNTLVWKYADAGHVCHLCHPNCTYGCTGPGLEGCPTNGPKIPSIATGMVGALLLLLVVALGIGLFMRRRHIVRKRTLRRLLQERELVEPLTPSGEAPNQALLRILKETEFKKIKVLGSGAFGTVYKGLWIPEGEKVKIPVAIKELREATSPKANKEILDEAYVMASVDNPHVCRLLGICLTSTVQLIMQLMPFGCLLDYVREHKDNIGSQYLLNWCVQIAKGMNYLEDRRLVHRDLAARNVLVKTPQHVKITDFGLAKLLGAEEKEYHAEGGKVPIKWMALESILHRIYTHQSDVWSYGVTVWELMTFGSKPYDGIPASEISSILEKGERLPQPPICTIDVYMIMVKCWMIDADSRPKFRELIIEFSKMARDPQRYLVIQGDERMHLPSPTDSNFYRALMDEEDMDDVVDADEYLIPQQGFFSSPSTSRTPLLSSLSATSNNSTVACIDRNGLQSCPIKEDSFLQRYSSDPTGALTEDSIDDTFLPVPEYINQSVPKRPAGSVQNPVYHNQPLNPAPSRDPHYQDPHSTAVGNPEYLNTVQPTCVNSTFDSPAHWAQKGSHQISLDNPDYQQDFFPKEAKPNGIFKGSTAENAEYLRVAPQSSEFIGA
Method: (§1) 2) 1 to 5 μL of diluted solution in gradient of the compound was added.
(§2) 3) The mixture was incubated for 10 minutes at room temperature.
(§3) 6) 5 μL of EDTA stop solution was added to terminate the reaction for 5 minutes.
7) […] of a test solution containing the labeled antibody was added, and the mixture was incubated at room temperature for 1 hour.
9) The inhibition rates were calculated according to the fluorescence signal values.
(§4) 10) The IC50 of the compound was obtained by curve fitting according to the inhibition rates at different concentrations.

wild-type EGFR enzyme = wild-type EGFR enzyme (Homo sapiens, UniProt P00533); test: Enzymologic experiment of wild-type (WT) EGFR (TR-FRET); type: biochemical; conditions: ATP 0.1 to 5 uM
Chain of wild-type EGFR enzyme (P00533 25-1210): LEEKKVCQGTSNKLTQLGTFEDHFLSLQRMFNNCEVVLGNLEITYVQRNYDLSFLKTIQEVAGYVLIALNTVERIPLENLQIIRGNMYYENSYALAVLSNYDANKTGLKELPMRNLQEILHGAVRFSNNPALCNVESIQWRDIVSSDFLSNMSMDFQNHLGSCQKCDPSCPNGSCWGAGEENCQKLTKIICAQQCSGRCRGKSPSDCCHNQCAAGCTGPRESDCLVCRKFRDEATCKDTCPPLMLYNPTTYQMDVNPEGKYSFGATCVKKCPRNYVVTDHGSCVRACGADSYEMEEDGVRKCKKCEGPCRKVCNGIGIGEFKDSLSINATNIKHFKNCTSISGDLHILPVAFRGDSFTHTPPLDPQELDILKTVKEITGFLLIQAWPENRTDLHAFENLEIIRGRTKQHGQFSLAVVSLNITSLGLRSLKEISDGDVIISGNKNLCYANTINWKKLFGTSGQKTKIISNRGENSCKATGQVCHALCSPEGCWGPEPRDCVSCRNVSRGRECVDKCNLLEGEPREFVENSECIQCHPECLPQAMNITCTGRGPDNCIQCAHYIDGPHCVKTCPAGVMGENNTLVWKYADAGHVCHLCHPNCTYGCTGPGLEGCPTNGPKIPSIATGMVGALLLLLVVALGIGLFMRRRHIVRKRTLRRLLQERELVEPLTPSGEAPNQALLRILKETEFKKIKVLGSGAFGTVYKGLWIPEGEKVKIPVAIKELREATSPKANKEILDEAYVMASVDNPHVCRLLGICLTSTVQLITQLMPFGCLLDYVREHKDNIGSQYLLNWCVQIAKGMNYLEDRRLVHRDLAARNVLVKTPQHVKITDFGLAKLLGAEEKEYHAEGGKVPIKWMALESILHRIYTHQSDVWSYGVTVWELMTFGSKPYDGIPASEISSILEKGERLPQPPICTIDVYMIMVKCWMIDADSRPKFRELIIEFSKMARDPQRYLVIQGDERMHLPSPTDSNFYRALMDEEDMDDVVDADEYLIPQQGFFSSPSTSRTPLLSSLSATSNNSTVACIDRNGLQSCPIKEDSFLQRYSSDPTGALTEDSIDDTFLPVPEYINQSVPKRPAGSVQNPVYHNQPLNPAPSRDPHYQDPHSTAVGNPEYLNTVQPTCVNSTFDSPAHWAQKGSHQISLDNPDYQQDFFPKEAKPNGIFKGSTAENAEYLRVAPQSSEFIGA
Method: 2. Enzymologic Experiment of Wild-Type (WT) EGFR
In this experiment, the inhibitory effect of compounds on wild-type EGFR enzyme was tested by a fluorescence resonance energy transfer (TR-FRET) method, and the half maximal inhibitory concentration IC50 of the compounds on enzymatic activity was determined.
1) 1 to 5 μL of wild-type EGFR enzyme solution was added to a 384-well plate, and the final concentration of the enzyme was 0.1 to 1 nM.
as §1, §2, §3
7) 5 μL of a test solution containing the labeled antibody was added, and the mixture was incubated at room temperature for 1 hour.
9) The inhibition rates were calculated from the fluorescence signal values.
as §4

NCI-H1975 cells = test: Inhibition of NCI-H1975 cell proliferation (CellTiter-Glo); type: cell-based; conditions: Homo sapiens, NCI-H1975, 72 h, NCI-H1975 cell proliferation, 72 hours, CellTiter-Glo; read-out: EGFR IC50 (nM) H1975
Method: 3. Experiment on the Inhibition of NCI-H1975 Cell Proliferation
In this experiment, the inhibitory effect of the compounds on NCI-H1975 cell proliferation was tested by a CellTiter-Glo method, and the half maximal inhibitory concentration (IC50) of the compounds on the activity of cell proliferation was determined.
The culture plate was incubated in an incubator for 16 to 24 hours (37° C., 5% CO2).
2) Different concentrations of the test compound in a gradient dilution were added to the cells in the culture plate. The culture plate was incubated in an incubator for 72 hours (37° C., 5% CO2).
3) 50 to 100 μL of CellTiter-Glo reagent was added to each well. Then, the culture plate was shaken for 10 minutes, and left to stand at room temperature for 10 minutes.
4) The chemiluminescence signal values of each plate were determined by a microplate reader.
5) The inhibition rates were calculated according to the chemiluminescence signal values.
6) The IC50 of the compound was obtained by curve fitting according to the inhibition rates at different concentrations.

Structure (SMILES) | IC50 [1] | Selectivity of wild-type/mutant-type [1] | IC50 (wild-type EGFR enzyme) | IC50 (NCI-H1975 cells)
C=CC(=O)Nc1cc(Nc2nccc(-c3cn(C)c4ccccc34)n2)c(OC(F)F)cc1N(C)CCN(C)C [Example 1, N-(4-(difluoromethoxy)-2-((2-(dimethylamino)ethyl)(methyl)amino)-5-((4-(1-methyl-1H-indol-3-yl)pyrimidin-2-yl)amino)phenyl)acrylamide] | 0.15 nM | 13 | 2 nM | 
C=CC(=O)Nc1cc(Nc2nccc(-c3cn(C)c4ccccc34)n2)c(OC(F)F)cc1N(C)CCN1CCOCC1=O [Example 3, N-(4-(difluoromethoxy)-2-(methyl(2-(3-carbonylmorpholino)ethyl)amino)-5-((4-(1-methyl-1H-indol-3-yl)pyrimidin-2-yl)amino)phenyl)acrylamide] | 144 nM |  |  | 
C=CC(=O)Nc1cc(Nc2nccc(-c3cn(C)c4cc(P(C)(C)=O)ccc34)n2)c(OC(F)F)cc1N(C)CCN(C)C [Example 11, N-(4-(difluoromethoxy)-2-((2-(dimethylamino)ethyl)(methyl)amino)-5-((4-(6-(dimethylphosphoryl)-1-methyl-1H-indol-3-yl)pyrimidin-2-yl)amino)phenyl)acrylamide] | 2.74 nM | 23.39 | 64.1 nM | 24.6 nM
C=CC(=O)Nc1cc(Nc2nccc(-c3cn(C4CC4)c4ccccc34)n2)c(OC(F)F)cc1N(C)CCN(C)C [Example 12, N-(5-((4-(1-cyclopropyl-1H-indol-3-yl)pyrimidin-2-yl)amino)-4-(difluoromethoxy)-2-((2-(dimethylamino)ethyl)(methyl)amino)phenyl)acrylamide] | 0.32 nM | 18.7 | 6.01 nM | 
C=CC(=O)Nc1cc(Nc2nccc(-c3cn(C)c4ccc(C5CC5)cc34)n2)c(OC)cc1N(C)CCN(C)C [Example 23, N-(5-((4-(5-cyclopropyl-1-methyl-1H-indol-3-yl)pyrimidin-2-yl)amino)-2-((2-(dimethylamino)ethyl)(methyl)amino)-4-methoxyphenyl)acrylamide] | 2.75 nM |  |  | 46.8 nM
C=CC(=O)Nc1cc(Nc2nccc(-c3cn(C)c4ccccc34)n2)c(OC)cc1N1CC2(COC2)C1 [Example 27, N-(4-methoxy-5-((4-(1-methyl-1H-indol-3-yl)pyrimidin-2-yl)amino)-2-(2-oxa-6-azaspiro[3,3]heptan-6-yl)phenyl)acrylamide] | 50.2 nM |  |  | 
C=CC(=O)Nc1cc(Nc2nccc(-c3cn(C)c4cc(F)cc(F)c34)n2)c(OC)cc1N(C)CCN(C)C [Example 29, N-(5-((4-(4,6-difluoro-1-methyl-1H-indol-3-yl)pyrimidin-2-yl)amino)-2-((2-(dimethylamino)ethyl)(methyl)amino)-4-methoxyphenyl)acrylamide] | 16.5 nM |  |  | 
C=CC(=O)Nc1cc(Nc2nccc(-n3ncc4cc(OC)ccc43)n2)c(OC)cc1N(C)CCN(C)C [Example 43, N-(2-((2-(dimethylamino)ethyl)(methyl)amino)-4-methoxy-5-((4-(5-methoxy-1H-indazol-1-yl)pyrimidin-2-yl)amino)phenyl)acrylamide] | 0.38 nM | 9.8 | 3.77 nM | 
C=CC(=O)Nc1cc(Nc2nccc(-n3ncc4cc(C5CC5)ccc43)n2)c(OC)cc1N(C)CCN(C)C [Example 47, N-(5-((4-(5-cyclopropyl-1H-indazol-1-yl)pyrimidin-2-yl)amino)-2-((2-(dimethylamino)ethyl)(methyl)amino)-4-methoxyphenyl)acrylamide] | 41.4 nM |  |  | 
C=CC(=O)Nc1cc(Nc2ncc(C(F)(F)F)c(-n3ncc4cc(C#N)ccc43)n2)c(OC)cc1N(C)CCN(C)C [Example 52, N-(5-((4-(5-cyano-1H-indazol-1-yl)-5-(trifluoromethyl)pyrimidin-2-yl)amino)-2-((2-(dimethylamino)ethyl)(methyl)amino)-4-methoxyphenyl)acrylamide] | 1.08 nM | 107.1 | 116 nM | 4.52 nM

Second part, the compound after the results:

IC50 [1] | Selectivity of wild-type/mutant-type [1] | IC50 (wild-type EGFR enzyme) | IC50 (NCI-H1975 cells) | Structure (SMILES)
0.35 nM | 12.7 | 4.44 nM |  | C=CC(=O)Nc1cc(Nc2nccc(-n3cnc4cc(OC)ccc43)n2)c(OC)cc1N(C)CCN(C)C [Example 59, N-(2-((2-(dimethylamino)ethyl)(methyl)amino)-4-methoxy-5-((4-(5-methoxy-1H-benzo[d]imidazol-1-yl)pyrimidin-2-yl)amino)phenyl)acrylamide]
8.32 nM | 3.18 | 26.4 nM | 26.3 nM | C=CC(=O)Nc1cc(Nc2nccc(-n3cnc4ccc(C#N)cc43)n2)c(OC)cc1N(C)CCN(C)C [Example 62, N-(5-((4-(6-cyano-1H-benzo[d]imidazol-1-yl)pyrimidin-2-yl)amino)-2-((2-(dimethylamino)ethyl)(methyl)amino)-4-methoxyphenyl)acrylamide]
0.99 nM | 193.03 | 191 nM |  | C=CC(=O)Nc1cc(Nc2ncc(C(F)(F)F)c(-n3cnc4ccc(OC)cc43)n2)c(OC)cc1N(C)CCN(C)C [Example 68, N-(2-((2-(dimethylamino)ethyl)(methyl)amino)-4-methoxy-5-((4-(6-methoxy-1H-benzo[d]imidazol-1-yl)-5-(trifluoromethyl)pyrimidin-2-yl)amino)phenyl)acrylamide]
28.1 nM |  |  |  | C=CC(=O)Nc1cc(Nc2nccc(-n3c(C)nc4cc(OC)ccc43)n2)c(OC)cc1N(C)CCN(C)C [Example 71, N-(2-((2-(dimethylamino)ethyl)(methyl)amino)-4-methoxy-5-((4-(5-methoxy-2-methyl-1H-benzo[d]imidazol-1-yl)pyrimidin-2-yl)amino)phenyl)acrylamide]
26 nM |  |  |  | C=CC(=O)Nc1cc(Nc2nccc(-n3c(C)nc4ccc(C#N)cc43)n2)c(OC)cc1N(C)CCN(C)C [Example 74, N-(5-((4-(6-cyano-2-methyl-1H-benzo[d]imidazol-1-yl)pyrimidin-2-yl)amino)-2-((2-(dimethylamino)ethyl)(methyl)amino)-4-methoxyphenyl)acrylamide]
8.57 nM | 4.04 | 34.6 nM | 112 nM | C=CC(=O)Nc1cc(Nc2nccc(-c3cn(C)c4c(F)cc(F)cc34)n2)c(OC)cc1N(C)CCN(C)C [Example 89, N-(5-((4-(5,7-difluoro-1-methyl-1H-indol-3-yl)pyrimidin-2-yl)amino)-2-((2-(dimethylamino)ethyl)(methyl)amino)-4-methoxyphenyl)acrylamide]
1.33 nM | 89.47 | 119 nM |  | C=CC(=O)Nc1cc(Nc2ncc(Cl)c(-n3nc(OC)c4cc(Cl)ccc43)n2)c(OC)cc1N(C)CCN(C)C [Example 108, N-(5-((5-chloro-4-(5-chloro-3-methoxy-1H-indazol-1-yl)pyrimidin-2-yl)amino)-2-((2-(dimethylamino)ethyl)(methyl)amino)-4-methoxyphenyl)acrylamide]
5.18 nM | 74.79 | 387 nM |  | C=CC(=O)Nc1cc(Nc2ncc(C(F)(F)F)c(-n3nc(OC)c4cc(Cl)ccc43)n2)c(OC)cc1N(C)CCN(C)C [Example 109, N-(5-((4-(5-chloro-3-methoxy-1H-indazol-1-yl)-5-(trifluoromethyl)pyrimidin-2-yl)amino)-2-((2-(dimethylamino)ethyl)(methyl)amino)-4-methoxyphenyl)acrylamide]
1.06 nM | 9.10 | 9.65 nM |  | C=CC(=O)Nc1cc(Nc2nccc(-n3nc(OC)c4cc(Cl)ccc43)n2)c(OC)cc1N(C)CCN(C)C [Example 110, N-(5-((4-(5-chloro-3-methoxy-1H-indazol-1-yl)pyrimidin-2-yl)amino)-2-((2-(dimethylamino)ethyl)(methyl)amino)-4-methoxyphenyl)acrylamide]
0.8 nM | 24.45 | 19.6 nM |  | C=CC(=O)Nc1cc(Nc2ncc(Cl)c(-n3nc(CCC)c4cc(C#N)ccc43)n2)c(OC)cc1N(C)CCN(C)C [Example 116, N-(5-((5-chloro-4-(5-cyano-3-propyl-1H-indazol-1-yl)pyrimidin-2-yl)amino)-2-((2-(dimethylamino)ethyl)(methyl)amino)-4-methoxyphenyl)acrylamide]
